Among the data in patent publication US4595678A, “N-substituted pseudo-aminosugars and pharmaceutical compositions containing same” (Takeda Chemical Industries, Ltd., priority 1982, dated 1986) are IC50 values, retold here.

Where two headings read alike, the source gives them in different places.

Experiment [1] has as its target maltase (porcine intestinal mucosa). Kind of experiment: Glucosidase inhibitory activity, maltase (maltose as substrate). The class given is biochemical. The settings on record: read-out: IC50 (maltase), 50% inhibition concentration, pH 6.8, 37° C., 10 minutes. The procedure: (§1) The method of assaying the glucosidase inhibitory activity.
(§2) The inhibitory activities against maltase or saccharase prepared from porcine intestinal mucosa [prepared in accordance with the procedure as described by B. Borgstrom and A. Dahlqvist in Acta Chem. Scand., 12, 1997-2006, (1958)], when maltose or sucrose is used as a substrate, were determined by adding, to 0.25 ml of a solution of an enzyme prepared by diluting suitably with 0.02M phosphate buffer (pH 6.8), 0.5 ml of an inhibitory substance to be tested (compound [I] or a pharmaceutically acceptable salt thereof) in the same buffer and 0.25 ml of 0.05M maltose or 0.05M sucrose as the substrate in the same buffer, allowing the mixture to react at 37° C. for 10 minutes, then adding 3 ml of Glucose B-Test Reagent (a glucose oxidase reagent for measurement of glucose, produced by Wako Pure Chemical Co., Japan), further warming the mixture at 37° C. for 20 minutes and measuring the absorbance of the colored reaction solution at 505 nm.

Experiment [2] concerns the target T1, saccharase (porcine intestinal mucosa) (Sus scrofa, UniProt P56729).
T1 construct: prepared from porcine intestinal mucosa; from tissue; host or cells: porcine intestinal mucosa
Kind of experiment: Glucosidase inhibitory activity, saccharase (sucrose as substrate). The class given is biochemical. The procedure: as §1, §2

Setting [3] is: read-out: IC50 (saccharase), 50% inhibition concentration, pH 6.8, 37° C., 10 minutes.

T1 sequence (P56729 with tags, fused parts or gaps limits assumed): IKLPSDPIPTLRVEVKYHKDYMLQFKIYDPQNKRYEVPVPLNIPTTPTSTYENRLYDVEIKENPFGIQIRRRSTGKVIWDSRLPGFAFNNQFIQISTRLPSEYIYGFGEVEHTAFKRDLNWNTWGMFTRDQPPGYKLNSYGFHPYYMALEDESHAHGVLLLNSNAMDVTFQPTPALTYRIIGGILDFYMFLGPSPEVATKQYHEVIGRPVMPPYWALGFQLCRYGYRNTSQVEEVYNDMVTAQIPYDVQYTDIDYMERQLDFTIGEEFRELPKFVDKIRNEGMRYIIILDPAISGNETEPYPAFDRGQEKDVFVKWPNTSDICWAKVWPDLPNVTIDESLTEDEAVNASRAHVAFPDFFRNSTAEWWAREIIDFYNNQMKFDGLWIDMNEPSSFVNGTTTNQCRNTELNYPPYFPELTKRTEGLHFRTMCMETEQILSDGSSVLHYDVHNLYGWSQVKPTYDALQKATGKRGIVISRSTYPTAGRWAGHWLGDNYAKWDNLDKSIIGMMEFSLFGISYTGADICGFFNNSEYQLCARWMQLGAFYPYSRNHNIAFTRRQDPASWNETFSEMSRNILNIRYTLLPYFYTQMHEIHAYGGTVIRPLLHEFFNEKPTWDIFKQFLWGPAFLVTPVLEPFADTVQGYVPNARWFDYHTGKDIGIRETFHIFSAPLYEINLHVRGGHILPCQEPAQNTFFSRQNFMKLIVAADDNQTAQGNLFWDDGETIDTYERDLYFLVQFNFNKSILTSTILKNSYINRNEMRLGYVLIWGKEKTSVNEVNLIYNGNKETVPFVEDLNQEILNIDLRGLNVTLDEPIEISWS
T1 sequence (P56729 with tags, fused parts or gaps partner limits assumed): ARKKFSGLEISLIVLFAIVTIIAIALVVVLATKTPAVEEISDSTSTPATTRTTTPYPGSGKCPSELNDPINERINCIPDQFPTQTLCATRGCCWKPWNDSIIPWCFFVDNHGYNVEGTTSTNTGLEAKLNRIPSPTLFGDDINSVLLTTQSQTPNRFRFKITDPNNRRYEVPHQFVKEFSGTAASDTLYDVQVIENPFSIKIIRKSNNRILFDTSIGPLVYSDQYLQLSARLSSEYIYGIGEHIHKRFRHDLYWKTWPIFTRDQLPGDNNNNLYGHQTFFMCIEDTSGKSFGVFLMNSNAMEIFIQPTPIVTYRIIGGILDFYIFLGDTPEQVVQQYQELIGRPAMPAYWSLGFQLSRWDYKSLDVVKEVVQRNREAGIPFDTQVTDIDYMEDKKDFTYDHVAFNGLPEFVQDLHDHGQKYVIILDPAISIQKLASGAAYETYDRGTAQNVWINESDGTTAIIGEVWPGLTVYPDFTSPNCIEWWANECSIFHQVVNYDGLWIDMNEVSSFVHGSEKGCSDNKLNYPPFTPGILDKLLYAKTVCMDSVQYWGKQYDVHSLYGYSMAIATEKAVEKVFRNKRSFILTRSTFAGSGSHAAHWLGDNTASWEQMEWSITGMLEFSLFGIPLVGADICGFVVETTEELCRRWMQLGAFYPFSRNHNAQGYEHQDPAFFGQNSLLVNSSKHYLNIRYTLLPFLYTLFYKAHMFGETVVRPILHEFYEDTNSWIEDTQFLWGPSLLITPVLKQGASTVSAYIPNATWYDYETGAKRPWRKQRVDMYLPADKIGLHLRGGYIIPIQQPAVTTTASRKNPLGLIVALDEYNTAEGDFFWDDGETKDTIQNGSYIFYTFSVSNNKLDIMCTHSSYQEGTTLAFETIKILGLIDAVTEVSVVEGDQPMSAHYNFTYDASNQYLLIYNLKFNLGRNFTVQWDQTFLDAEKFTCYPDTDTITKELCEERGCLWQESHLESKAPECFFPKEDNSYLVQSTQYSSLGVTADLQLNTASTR

Turning to `N[C@H]1C[C@H](CO)C(N[C@H]2C[C@H](CO)[C@@H](O)[C@H](O)[C@H]2O)[C@H](O)[C@H]1O` (single isomer, unassigned) [Example 6, first eluted isomer], the IC50 in experiment [1] amounted to 2900 nM; in experiment [2] (setting [3]) it was 1600 nM. As for `N[C@H]1C[C@H](CO)C(N[C@H]2C[C@H](CO)[C@@H](O)[C@H](O)[C@H]2O)[C@H](O)[C@H]1O` (single isomer, unassigned) [Example 6, later eluted isomer], the IC50 in experiment [2] (setting [3]) came to 78000 nM. In the case of `N[C@H]1C[C@H](CO)C(N[C@H]2C[C@](O)(CO)[C@@H](O)[C@H](O)[C@H]2O)[C@H](O)[C@H]1O` (single isomer, unassigned) [Example 8,4-amino derivative from the first eluted component of Example 7], the IC50 is 3300 nM in experiment [1] and 250 nM in experiment [2] (setting [3]).

As for `N[C@H]1C[C@H](CO)C(N[C@H]2C[C@](O)(CO)[C@@H](O)[C@H](O)[C@H]2O)[C@H](O)[C@H]1O` (single isomer, unassigned) [Example 8,4-amino derivative from the later eluted component of Example 7], the IC50 was determined as 2800 nM in experiment [1] and 230 nM in experiment [2] (setting [3]).

As to `NC1CC(N)C(N[C@H]2C[C@](O)(CO)[C@@H](O)[C@H](O)[C@H]2O)C(O)C1O` (single isomer, unassigned) [Example 12, Isomer D, N-(2,4-Diamino-5,6-dihydroxycyclohexyl)valiolamine], the IC50 turned out to be 1000 nM in experiment [1] and 88 nM in experiment [2] (setting [3]). With `C[C@H]1CC(O)[C@H](O)[C@@H](O)[C@@H]1N[C@H]1C[C@](O)(CO)[C@@H](O)[C@H](O)[C@H]1O` (single isomer, unassigned) [Example 21, isomer (a)], the IC50 in experiment [2] (setting [3]) came out at 35 nM.

Take `C[C@H]1CC(O)[C@H](O)[C@@H](O)[C@@H]1N[C@H]1C[C@](O)(CO)[C@@H](O)[C@H](O)[C@H]1O` (single isomer, unassigned) [Example 21, isomer (b)]: the IC50 in experiment [2] (setting [3]) was determined as 36 nM. Take `CO[C@H]1O[C@H](C)[C@H](N[C@H]2C[C@H](CO)[C@@H](O)[C@H](O)[C@H]2O)[C@H](O)[C@H]1O` [Example 1,6-deoxygalactopyranoside isomer, Methyl 4-[(1S,2S)-(2,4/3,5)-2,3,4-trihydroxy-5-hydroxymethylcyclohexyl]amino-4,6-dideoxy-α-D-galactopyranoside]: in experiment [2] (pH 6.8, 37° C., 10 minutes), the IC50 is 5600 nM. Turning to `CO[C@H]1O[C@H](C)[C@@H](N[C@H]2C[C@H](CO)[C@@H](O)[C@H](O)[C@H]2O)[C@H](O)[C@H]1O` [Example 1,6-deoxyglucopyranoside isomer, Methyl 4-[(1S,2S)-(2,4/3,5)-2,3,4-trihydroxy-5-hydroxymethylcyclohexyl]amino-4,6-dideoxy-α-D-glucopyranoside], the IC50 in experiment [1] stood at 1800 nM; in experiment [2] (pH 6.8, 37° C., 10 minutes) it was 740 nM. As for `CO[C@H]1O[C@H](CO)[C@H](N[C@H]2C[C@H](CO)[C@@H](O)[C@H](O)[C@H]2O)[C@H](O)[C@H]1O` [Example 3, Galactopyranoside isomer, Methyl 4-[(1S,2S)-(2,4/3,5)-2,3,4-trihydroxy-5-hydroxymethylcyclohexyl]amino-4-deoxy-α-D-galactopyranoside], the IC50 in experiment [2] (pH 6.8, 37° C., 10 minutes) was determined as 1000 nM. Regarding `CO[C@H]1O[C@H](CO)[C@@H](N[C@H]2C[C@H](CO)[C@@H](O)[C@H](O)[C@H]2O)[C@H](O)[C@H]1O` [Example 3, Glucopyranoside isomer, Methyl 4-[(1S,2S)-(2,4/3,5)-2,3,4-trihydroxy-5-hydroxymethylcyclohexyl]amino-4-deoxy-α-D-glucopyranoside], the IC50 in experiment [1] came to 4400 nM; in experiment [2] (pH 6.8, 37° C., 10 minutes) it was 580 nM. The like results for `CO[C@H]1O[C@H](CO)[C@H](N[C@H]2C[C@](O)(CO)[C@@H](O)[C@H](O)[C@H]2O)[C@H](O)[C@H]1O` [Example 4, Galactopyranoside isomer, Methyl 4-[(1S,2S)-(2,4,5(OH)/3,5-(CH2 OH))-2,3,4,5-tetrahydroxy-5-hydroxymethylcyclohexyl]amino-4-deoxy-α-D-galactopyranoside] were, in that order, 320 nM and 620 nM. The like results for `CO[C@H]1O[C@H](CO)[C@@H](N[C@H]2C[C@](O)(CO)[C@@H](O)[C@H](O)[C@H]2O)[C@H](O)[C@H]1O` [Example 4, Glucopyranoside isomer, Methyl 4-[(1S,2S)-(2,4,5(OH)/3,5(CH2 OH))-2,3,4,5-tetrahydroxy-5-hydroxymethylcyclohexyl]amino-4-deoxy-α-D-glucopyranoside] were, in that order, 72 nM and 80 nM. In turn, `O=C(N[C@H]1C[C@H](CO)C(N[C@H]2C[C@H](CO)[C@@H](O)[C@H](O)[C@H]2O)[C@H](O)[C@H]1O)OCc1ccccc1` (stereo partly drawn) [Example 5, [(1S,2S)-(2,4/3,5)-2,3,4-Trihydroxy-5-hydroxymethylcyclohexyl][(2S)-(2,6/3,4)-4-benzyloxycarbonylamino-2,3-dihydroxy-6-hydroxy-methylcyclohexyl]amine] had an IC50 in experiment [2] (pH 6.8, 37° C., 10 minutes) of 700 nM. Turning to `CCOC(=O)NC1CC(NC(=O)OCC)C(N[C@H]2C[C@](O)(CO)[C@@H](O)[C@H](O)[C@H]2O)C(O)C1O` (some centres unmarked) [Example 11, N-(2,4-Diethoxycarbonylamino-5,6-dihydroxycyclohexyl)valiolamine], the IC50 in experiment [1] is 9000 nM; in experiment [2] (setting [3]), 4900 nM. Consider `NC1CC(N)C(N[C@H]2C[C@H](CO)[C@@H](O)[C@H](O)[C@H]2O)C(O)C1O` (some centres unmarked) [Example 14, N-(2,4-Diamino-5,6-dihydroxycyclohexyl)validamine], for which the IC50 in experiment [2] (setting [3]) was 880 nM. For the molecule `OC[C@H]1C[C@H](N[C@@H]2C[C@H](CO)[C@@H](O)[C@H](O)[C@H]2O)[C@H](O)[C@@H](O)[C@@H]1O` [Example 17, (1R,2S) isomer, N-[(1R,2S)-(2,4/3,5)-2,3,4-trihydroxy-5-hydroxymethylcyclohexyl]validamine], the IC50 in experiment [1] was found to be 2200 nM; in experiment [2] (pH 6.8, 37° C., 10 minutes), 270 nM. Consider `OC[C@H]1C[C@H](N[C@H]2C[C@](O)(CO)[C@@H](O)[C@H](O)[C@H]2O)[C@H](O)[C@@H](O)[C@@H]1O` [Example 18, (1S,2S) isomer, N-[(1S,2S)-(2,4/3,5)-2,3,4-trihydroxy-5-hydroxymethylcyclohexyl]valiolamine], for which, in experiment [2] (pH 6.8, 37° C., 10 minutes), the IC50 was found to be 5600 nM. On the same count and under the same terms, the same measure for `C[C@H]1C[C@H](N)[C@H](O)[C@@H](O)[C@H]1N[C@H]1C[C@](O)(CO)[C@@H](O)[C@H](O)[C@H]1O` [Example 20, isomer (b), N-[(1S,2S)-(2,6/3,4)-4-amino-2,3-dihydroxy-6-methylcyclohexyl]valiolamine]: 53 nM. With `CC1(C)O[C@H]2O[C@H]([C@H](O)CO)C(N[C@H]3C[C@](O)(CO)[C@@H](O)[C@H](O)[C@H]3O)[C@H]2O1` (some centres unmarked) [N-[2,3-O-isopropylidene-2,3-dihydroxy-5-(1,2-dihydroxyethyl)tetrahydrofuran-4-yl]valiolamine], the IC50 in experiment [2] (setting [3]) turned out to be 37000 nM. Regarding `CO[C@H]1O[C@H](C)[C@@H](N[C@H]2C=C(CO)[C@@H](O)[C@H](O)[C@H]2O)[C@H](O)[C@H]1O` [Reference Example 40,6-deoxyglucopyranoside isomer, Methyl 4-[(1S,6S)-(4,6/5)-4,5,6-trihydroxy-3-hydroxymethyl-2-cyclohexen-1-yl]amino-4,6-dideoxy-α-D-glucopyranoside], the IC50 in experiment [2] (pH 6.8, 37° C., 10 minutes) is 700 nM. Still for that read-out and setting: under `CC1(O)CC(N)C(O)C(O)C1O` (centres unmarked) [compound 26, 7-Deoxyvaliolamine] stands 24000 nM.
